Measured values: ChEMBL document CHEMBL3885861, “Open TG-GATES”

Species on record: Rattus norvegicus
Assay: Open TG-GATES - Regimen: Daily Repeat
Type: toxicity, organism-based, Sprague-Dawley
Set-up: regimen Daily Repeat, gender Male, age 6 weeks
Settings: in vivo, po, route gavage; for APTT / Bas / Eos / Fbg / Hb / Ht / Lym / MCH / MCHC / MCV / Mono / Neu / PT / Plat / RBC / Ret / WBC: tissue Blood; for KIDNEY_L / KIDNEY_R / KIDNEY_TOTAL: tissue Kidney; for LIVER: tissue Liver; for ALP / ALT / BUN / CRE / Ca / DBIL / GLC / K / LDH / Na / PL / RALB / TBIL / TC / TG / TP / gamma-GTP / AST: tissue Plasma
[1] = 60 mg/kg, 72 h, dose level Middle, time 3 day
[2] = 60 mg/kg, […], dose level Middle, time 7 day
[3] = 60 mg/kg, […], dose level Middle, time 14 day
[4] = 60 mg/kg, […], dose level Middle, time 28 day
[5] = 200 mg/kg, 72 h, dose level High, time 3 day
[6] = 200 mg/kg, […], dose level High, time 7 day
[7] = 200 mg/kg, […], dose level High, time 14 day
[8] = 200 mg/kg, […], dose level High, time 28 day

CCCCc1oc2ccccc2c1C(=O)c1cc(I)c(OCCN(CC)CC)c(I)c1 [AMIODARONE]
TERMINAL_BW [1]: 226.1 g | APTT [1]: 18.2 s | Bas [1]: 0% | Eos [1]: 1.2% | Fbg [1]: 225.8 mg/dL | Hb [1]: 13.5 g/dL | Ht [1]: 39.6% | Lym [1]: 79.2% | MCH [1]: 21.1 pg | MCHC [1]: 34.1% | MCV [1]: 62.1 fL | Mono [1]: 2.6% | Neu [1]: 15.8% | PT [1]: 12.8 s | Plat [1]: 127.1 x10_4/uL | RBC [1]: 637.8 x10_4/ul | Ret [1]: 5.5% | WBC [1]: 99.3 x10_2/uL | KIDNEY_L [1]: 1 g | KIDNEY_R [1]: 1 g | KIDNEY_TOTAL [1]: 2.1 g | LIVER [1]: 11 g | ALP [1]: 1120.2 IU/L | ALT [1]: 37.8 IU/L | BUN [1]: 16 mg/dL | CRE [1]: 0.3 mg/dL | Ca [1]: 10.7 mg/dL | DBIL [1]: 0.096 mg/dL | GLC [1]: 196.6 mg/dL | K [1]: 3.8 meq/L | LDH [1]: 194.6 IU/L | Na [1]: 140.8 meq/L | PL [1]: 147 mg/dL | RALB [1]: 3.4 g/dL | TBIL [1]: 0.1 mg/dL | TC [1]: 73.8 mg/dL | TG [1]: 101.8 mg/dL | TP [1]: 5.5 g/dL | gamma-GTP [1]: 1 IU/L | TERMINAL_BW [2]: 259.8 g | TERMINAL_BW [3]: 302.6 g | TERMINAL_BW [4]: 385.9 g | APTT [2]: 17.9 s | Bas [2]: 0% | Eos [2]: 1% | Fbg [2]: 216.8 mg/dL | Hb [2]: 13 g/dL | Lym [2]: 76.2% | MCH [2]: 20.9 pg | MCHC [2]: 34.1% | Mono [2]: 3.2% | Neu [2]: 18.6% | PT [2]: 12.3 s | Plat [2]: 132.6 x10_4/uL | RBC [2]: 622.6 x10_4/ul | Ret [2]: 5.4% | WBC [2]: 103.2 x10_2/uL | APTT [3]: 20.8 s | Bas [3]: 0% | Eos [3]: 0.4% | Fbg [3]: 214.4 mg/dL | Hb [3]: 14.4 g/dL | Ht [3]: 41.1% | Lym [3]: 79% | MCH [3]: 20.9 pg | MCHC [3]: 35% | MCV [3]: 59.7 fL | Mono [3]: 2.2% | Neu [3]: 17.4% | Plat [3]: 115.4 x10_4/uL | RBC [3]: 688.2 x10_4/ul | Ret [3]: 4.3% | WBC [3]: 115.1 x10_2/uL | APTT [4]: 20.6 s | Bas [4]: 0% | Eos [4]: 1% | Fbg [4]: 218.6 mg/dL | Ht [4]: 42.1% | Lym [4]: 78.2% | MCH [4]: 19.7 pg | MCHC [4]: 35% | MCV [4]: 56.3 fL | Mono [4]: 2.6% | Neu [4]: 17% | Plat [4]: 111.2 x10_4/uL | RBC [4]: 748.8 x10_4/ul | Ret [4]: 2.8% | WBC [4]: 115.2 x10_2/uL | KIDNEY_L [2]: 1.2 g | KIDNEY_R [2]: 1.1 g | KIDNEY_TOTAL [2]: 2.3 g | KIDNEY_L [3]: 1.2 g | KIDNEY_R [3]: 1.2 g | KIDNEY_TOTAL [3]: 2.3 g | KIDNEY_L [4]: 1.3 g | KIDNEY_R [4]: 1.3 g | KIDNEY_TOTAL [4]: 2.7 g | LIVER [3]: 13.8 g | LIVER [4]: 16.9 g | ALP [2]: 981 IU/L | ALT [2]: 34.8 IU/L | AST [2]: 60 IU/L | BUN [2]: 17.4 mg/dL | CRE [2]: 0.3 mg/dL | Ca [2]: 10.5 mg/dL | DBIL [2]: 0.1 mg/dL | GLC [2]: 208 mg/dL | K [2]: 4 meq/L | LDH [2]: 174.8 IU/L | Na [2]: 140.2 meq/L | PL [2]: 166.8 mg/dL | RALB [2]: 3.3 g/dL | TBIL [2]: 0.2 mg/dL | TC [2]: 90.8 mg/dL | TG [2]: 98.6 mg/dL | TP [2]: 5.5 g/dL | gamma-GTP [2]: 0.8 IU/L | ALP [3]: 996.2 IU/L | ALT [3]: 41.4 IU/L | AST [3]: 64.6 IU/L | BUN [3]: 16.6 mg/dL | CRE [3]: 0.4 mg/dL | Ca [3]: 10.6 mg/dL | DBIL [3]: 0.086 mg/dL | GLC [3]: 224.6 mg/dL | K [3]: 3.5 meq/L | LDH [3]: 174.6 IU/L | Na [3]: 140.4 meq/L | PL [3]: 171.6 mg/dL | RALB [3]: 3.4 g/dL | TBIL [3]: 0.1 mg/dL | TC [3]: 90.4 mg/dL | TG [3]: 102 mg/dL | TP [3]: 5.9 g/dL | gamma-GTP [3]: 1.8 IU/L | ALP [4]: 803.2 IU/L | ALT [4]: 34.4 IU/L | AST [4]: 56.4 IU/L | BUN [4]: 18 mg/dL | CRE [4]: 0.5 mg/dL | Ca [4]: 10.4 mg/dL | DBIL [4]: 0.098 mg/dL | GLC [4]: 192.6 mg/dL | K [4]: 3.7 meq/L | LDH [4]: 152.6 IU/L | Na [4]: 141 meq/L | PL [4]: 167.2 mg/dL | RALB [4]: 3.3 g/dL | TBIL [4]: 0.2 mg/dL | TC [4]: 86.6 mg/dL | TG [4]: 120 mg/dL | TP [4]: 6 g/dL | gamma-GTP [4]: 1.6 IU/L | TERMINAL_BW [5]: 204.2 g | APTT [5]: 27.3 s | Bas [5]: 0% | Eos [5]: 1.2% | Fbg [5]: 214.6 mg/dL | Hb [5]: 14.1 g/dL | Ht [5]: 40.9% | Lym [5]: 84.6% | MCH [5]: 20.9 pg | MCHC [5]: 34.4% | MCV [5]: 60.8 fL | Mono [5]: 3.2% | Neu [5]: 9.2% | PT [5]: 15.9 s | Plat [5]: 122.1 x10_4/uL | RBC [5]: 672.8 x10_4/ul | Ret [5]: 3.5% | WBC [5]: 70.5 x10_2/uL | KIDNEY_L [5]: 0.9 g | KIDNEY_R [5]: 0.9 g | KIDNEY_TOTAL [5]: 1.8 g | LIVER [5]: 9 g | ALP [5]: 1623.2 IU/L | BUN [5]: 14.2 mg/dL | CRE [5]: 0.3 mg/dL | Ca [5]: 10 mg/dL | DBIL [5]: 0.062 mg/dL | GLC [5]: 193.2 mg/dL | K [5]: 3.6 meq/L | LDH [5]: 222.2 IU/L | Na [5]: 140.2 meq/L | PL [5]: 181.6 mg/dL | RALB [5]: 3.4 g/dL | TBIL [5]: 0.1 mg/dL | TC [5]: 135 mg/dL | TG [5]: 33.2 mg/dL | TP [5]: 5.7 g/dL | gamma-GTP [5]: 0.8 IU/L | TERMINAL_BW [6]: 210.1 g | TERMINAL_BW [7]: 194.8 g | TERMINAL_BW [8]: 228 g | APTT [6]: 33.7 s | Bas [6]: 0% | Eos [6]: 0.8% | Fbg [6]: 202.2 mg/dL | Hb [6]: 14.6 g/dL | Ht [6]: 41.9% | Lym [6]: 82.8% | MCH [6]: 21.2 pg | MCHC [6]: 34.9% | MCV [6]: 60.7 fL | Mono [6]: 2.6% | Neu [6]: 13.2% | PT [6]: 17.5 s | Plat [6]: 127 x10_4/uL | RBC [6]: 690.2 x10_4/ul | Ret [6]: 1.4% | WBC [6]: 119 x10_2/uL | APTT [7]: 26.9 s | Bas [7]: 0% | Eos [7]: 0.8% | Fbg [7]: 180.2 mg/dL | Hb [7]: 16 g/dL | Ht [7]: 44.7% | Lym [7]: 68% | MCH [7]: 20 pg | MCHC [7]: 35.9% | MCV [7]: 55.6 fL | Mono [7]: 1.6% | Neu [7]: 29.6% | PT [7]: 15 s | Plat [7]: 109.5 x10_4/uL | RBC [7]: 803.6 x10_4/ul | Ret [7]: 0.8% | WBC [7]: 77.9 x10_2/uL | APTT [8]: 27.4 s | Bas [8]: 0% | Eos [8]: 0.8% | Fbg [8]: 215.8 mg/dL | Hb [8]: 15.6 g/dL | Ht [8]: 42.8% | Lym [8]: 64% | MCH [8]: 19 pg | MCHC [8]: 36.4% | MCV [8]: 52.2 fL | Mono [8]: 2% | Neu [8]: 32% | PT [8]: 17 s | Plat [8]: 159.1 x10_4/uL | RBC [8]: 819 x10_4/ul | Ret [8]: 2.1% | WBC [8]: 96 x10_2/uL | KIDNEY_L [6]: 0.9 g | KIDNEY_R [6]: 0.9 g | KIDNEY_TOTAL [6]: 1.9 g | KIDNEY_L [7]: 0.9 g | KIDNEY_R [7]: 0.9 g | KIDNEY_TOTAL [7]: 1.7 g | KIDNEY_L [8]: 0.9 g | KIDNEY_R [8]: 1 g | KIDNEY_TOTAL [8]: 1.9 g | LIVER [6]: 9.6 g | LIVER [7]: 9.1 g | ALP [6]: 1316.2 IU/L | ALT [6]: 31 IU/L | AST [6]: 56.4 IU/L | BUN [6]: 13.6 mg/dL | CRE [6]: 0.4 mg/dL | Ca [6]: 10 mg/dL | DBIL [6]: 0.068 mg/dL | GLC [6]: 184.4 mg/dL | K [6]: 4 meq/L | LDH [6]: 215.6 IU/L | Na [6]: 139.2 meq/L | PL [6]: 182.8 mg/dL | RALB [6]: 3.4 g/dL | TBIL [6]: 0.1 mg/dL | TC [6]: 144.8 mg/dL | TG [6]: 24.6 mg/dL | TP [6]: 5.8 g/dL | gamma-GTP [6]: 1.2 IU/L | ALP [7]: 1457.8 IU/L | ALT [7]: 44.8 IU/L | AST [7]: 59.8 IU/L | BUN [7]: 16.6 mg/dL | CRE [7]: 0.5 mg/dL | Ca [7]: 9.6 mg/dL | DBIL [7]: 0.064 mg/dL | GLC [7]: 200.8 mg/dL | K [7]: 3.6 meq/L | LDH [7]: 176.6 IU/L | Na [7]: 139.4 meq/L | PL [7]: 190.4 mg/dL | RALB [7]: 3.4 g/dL | TBIL [7]: 0.1 mg/dL | TC [7]: 163.4 mg/dL | TP [7]: 5.7 g/dL | gamma-GTP [7]: 1.6 IU/L | ALP [8]: 1315 IU/L | ALT [8]: 39.8 IU/L | AST [8]: 82 IU/L | BUN [8]: 15.5 mg/dL | CRE [8]: 0.5 mg/dL | Ca [8]: 9.4 mg/dL | DBIL [8]: 0.065 mg/dL | GLC [8]: 169 mg/dL | K [8]: 3.9 meq/L | LDH [8]: 184 IU/L | Na [8]: 139.8 meq/L | PL [8]: 177 mg/dL | RALB [8]: 3.3 g/dL | TBIL [8]: 0.1 mg/dL | TC [8]: 127.5 mg/dL | TG [8]: 26.5 mg/dL | TP [8]: 5.8 g/dL | gamma-GTP [8]: 1.2 IU/L
